Reference: ChEMBL document CHEMBL1133356, “Examination of novel non-phosphorus-containing phosphotyrosyl mimetics against protein-tyrosine phosphatase-1B and demonstration of differential affinities toward Grb2 SH2 domains” (Bioorg Med Chem Lett, 2000)
Peptide text beside a SMILES is read from it. * marks the point of attachment. Carboxymethyl = O=C(O)C*

How the values were obtained:
[1] = target: T1, Tyrosine-protein phosphatase non-receptor type 1 (Homo sapiens, UniProt P18031); experiment: Tested for binding affinity towards Protein-tyrosine Phosphatase 1B; design: species or system Rattus norvegicus
T1 sequence (P18031 whole entry): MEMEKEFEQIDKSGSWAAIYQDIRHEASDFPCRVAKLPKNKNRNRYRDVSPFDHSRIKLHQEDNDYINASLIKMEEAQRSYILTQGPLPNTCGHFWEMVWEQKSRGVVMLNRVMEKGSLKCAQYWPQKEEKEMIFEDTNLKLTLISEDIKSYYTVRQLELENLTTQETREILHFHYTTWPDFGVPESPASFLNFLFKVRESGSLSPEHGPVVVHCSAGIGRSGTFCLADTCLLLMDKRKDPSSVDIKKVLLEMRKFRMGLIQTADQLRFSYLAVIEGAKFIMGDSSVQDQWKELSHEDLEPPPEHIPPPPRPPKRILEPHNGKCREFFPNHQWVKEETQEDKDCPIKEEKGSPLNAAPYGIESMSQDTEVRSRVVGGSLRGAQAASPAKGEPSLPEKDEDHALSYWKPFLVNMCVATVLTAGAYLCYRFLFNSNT

[2] = target: T2, Growth factor receptor-bound protein 2 (Homo sapiens, UniProt P62993); experiment: Inhibition of Growth factor receptor bound protein 2 SH2 domain binding in plasmon resonance assay
[3] = target: T2, Growth factor receptor-bound protein 2; experiment: Inhibition of Growth factor receptor bound protein 2 SH2 domain binding in ELISA

| Structure (SMILES) | IC50 [1] [µM] | other results |
| --- | --- | --- |
| NC(=O)C[C@H](NC(=O)C1(NC(=O)[C@H](Cc2ccc(OCC(=O)O)cc2)NC(=O)C(=O)O)CCCCC1)C(=O)NCCCc1cccc2ccccc12 |  | IC50 [2]: 15 µM |
| NC(=O)C[C@H](NC(=O)C1(NC(=O)[C@H](Cc2ccc(O)c(C(=O)O)c2)NC(=O)C(=O)O)CCCCC1)C(=O)NCCCc1cccc2ccccc12 |  | IC50 [3]: > 100 µM |
| CC(=O)N[C@@H](CC(=O)O)C(=O)N[C@@H](C)C(=O)N[C@@H](CC(=O)O)C(=O)N[C@@H](CCC(=O)O)C(=O)N[C@@H](Cc1ccc(C(C(=O)O)C(=O)O)cc1)C(=O)N[C@@H](CC(C)C)C(N)=O (HELM PEPTIDE1{[ac].D.A.D.E.[O=C(O)C(C(=O)O)c1ccc(C[C@H](N[*:1])C(=O)[*:2])cc1].L.[am]}$$$$V2.0) | 1500 |  |
| CC(=O)N[C@@H](CC(=O)O)C(=O)N[C@@H](C)C(=O)N[C@@H](CC(=O)O)C(=O)N[C@@H](CCC(=O)O)C(=O)N[C@@H](Cc1ccc(C(F)(C(=O)O)C(=O)O)cc1)C(=O)N[C@@H](CC(C)C)C(N)=O (HELM PEPTIDE1{[ac].D.A.D.E.[O=C(O)C(F)(C(=O)O)c1ccc(C[C@H](N[*:1])C(=O)[*:2])cc1].L.[am]}$$$$V2.0) | 430 |  |
| NC(=O)C[C@H](NC(=O)C1(NC(=O)[C@H](Cc2ccc(OCC(=O)O)c(OCC(=O)O)c2)NC(=O)C(=O)O)CCCCC1)C(=O)NCCCc1cccc2ccccc12 |  | IC50 [2]: > 100 µM |
| CC(=O)N[C@@H](CC(=O)O)C(=O)N[C@@H](C)C(=O)N[C@@H](CC(=O)O)C(=O)N[C@@H](CCC(=O)O)C(=O)N[C@@H](Cc1ccc(C(F)(F)C(=O)O)cc1)C(=O)N[C@@H](CC(C)C)C(N)=O (HELM PEPTIDE1{[ac].D.A.D.E.[O=C(O)C(F)(F)c1ccc(C[C@H](N[*:1])C(=O)[*:2])cc1].L.[am]}$$$$V2.0) | 650 |  |
| NC(=O)C[C@H](NC(=O)C1(NC(=O)[C@H](Cc2ccc(C(=O)O)c(O)c2)NC(=O)C(=O)O)CCCCC1)C(=O)NCCCc1cccc2ccccc12 |  | IC50 [3]: 50 µM |
| NC(=O)C[C@H](NC(=O)C1(NC(=O)[C@H](Cc2ccc(C(F)(F)C(=O)O)cc2)NC(=O)C(=O)O)CCCCC1)C(=O)NCCCc1cccc2ccccc12 |  | IC50 [2]: 2 µM |
| CC(=O)N[C@@H](CC(=O)O)C(=O)N[C@@H](C)C(=O)N[C@@H](CC(=O)O)C(=O)N[C@@H](CCC(=O)O)C(=O)N[C@@H](Cc1ccc(C(=O)O)cc1)C(=O)N[C@@H](CC(C)C)C(N)=O (HELM PEPTIDE1{[ac].D.A.D.E.[O=C(O)c1ccc(C[C@H](N[*:1])C(=O)[*:2])cc1].L.[am]}$$$$V2.0) | 4400 |  |
| NC(=O)C[C@H](NC(=O)C1(NC(=O)[C@H](Cc2ccc(CC(=O)O)cc2)NC(=O)C(=O)O)CCCCC1)C(=O)NCCCc1cccc2ccccc12 |  | IC50 [2]: 0.6 µM |
| CC(=O)N[C@@H](CC(=O)O)C(=O)N[C@@H](C)C(=O)N[C@@H](CC(=O)O)C(=O)N[C@@H](CCC(=O)O)C(=O)N[C@@H](Cc1ccc(OP(=O)(O)O)cc1)C(=O)N[C@@H](CC(C)C)C(N)=O (HELM PEPTIDE1{[ac].D.A.D.E.[O=C([C@H](Cc1ccc(OP(=O)(O)O)cc1)N[*:1])[*:2]].L.[am]}$$$$V2.0) | 3.2 |  |
| CC(=O)N[C@@H](CC(=O)O)C(=O)N[C@@H](C)C(=O)N[C@@H](CC(=O)O)C(=O)N[C@@H](CCC(=O)O)C(=O)N[C@@H](Cc1ccc(CC(=O)O)cc1)C(=O)N[C@@H](CC(C)C)C(N)=O (HELM PEPTIDE1{[ac].D.A.D.E.[O=C(O)Cc1ccc(C[C@H](N[*:1])C(=O)[*:2])cc1].L.[am]}$$$$V2.0) | 2500 |  |

Now from value to compound, other results behind:

| IC50 [1] [µM] | Structure (SMILES) | other results |
| --- | --- | --- |
| 19 | CC(=O)N[C@@H](CC(=O)O)C(=O)N[C@@H](C)C(=O)N[C@@H](CC(=O)O)C(=O)N[C@@H](CCC(=O)O)C(=O)N[C@@H](Cc1ccc(OCC(=O)O)c(C(=O)O)c1)C(=O)N[C@@H](CC(C)C)C(N)=O (HELM PEPTIDE1{[ac].D.A.D.E.[O=C(O)COc1ccc(C[C@H](N[*:1])C(=O)[*:2])cc1C(=O)O].L.[am]}$$$$V2.0) |  |
| 800 | CC(=O)N[C@@H](CC(=O)O)C(=O)N[C@@H](C)C(=O)N[C@@H](CC(=O)O)C(=O)N[C@@H](CCC(=O)O)C(=O)N[C@@H](Cc1ccc(OCC(=O)O)c(OCC(=O)O)c1)C(=O)N[C@@H](CC(C)C)C(N)=O (HELM PEPTIDE1{[ac].D.A.D.E.[O=C(O)COc1ccc(C[C@H](N[*:1])C(=O)[*:2])cc1OCC(=O)O].L.[am]}$$$$V2.0) |  |
| 5300 | CC(=O)N[C@@H](CC(=O)O)C(=O)N[C@@H](C)C(=O)N[C@@H](CC(=O)O)C(=O)N[C@@H](CCC(=O)O)C(=O)N[C@@H](Cc1ccc(C(=O)O)c(O)c1)C(=O)N[C@@H](CC(C)C)C(N)=O (HELM PEPTIDE1{[ac].D.A.D.E.[O=C(O)c1ccc(C[C@H](N[*:1])C(=O)[*:2])cc1O].L.[am]}$$$$V2.0) |  |
| 13000 | CC(=O)N[C@@H](CC(=O)O)C(=O)N[C@@H](C)C(=O)N[C@@H](CC(=O)O)C(=O)N[C@@H](CCC(=O)O)C(=O)N[C@@H](Cc1ccc(CC(=O)O)c(O)c1)C(=O)N[C@@H](CC(C)C)C(N)=O (HELM PEPTIDE1{[ac].D.A.D.E.[O=C(O)Cc1ccc(C[C@H](N[*:1])C(=O)[*:2])cc1O].L.[am]}$$$$V2.0) |  |
| 3700 | CC(=O)N[C@@H](CC(=O)O)C(=O)N[C@@H](C)C(=O)N[C@@H](CC(=O)O)C(=O)N[C@@H](CCC(=O)O)C(=O)N[C@@H](Cc1ccc(CC(=O)O)c(C(=O)O)c1)C(=O)N[C@@H](CC(C)C)C(N)=O (HELM PEPTIDE1{[ac].D.A.D.E.[O=C(O)Cc1ccc(C[C@H](N[*:1])C(=O)[*:2])cc1C(=O)O].L.[am]}$$$$V2.0) |  |
| 4600 | CC(=O)N[C@@H](CC(=O)O)C(=O)N[C@@H](C)C(=O)N[C@@H](CC(=O)O)C(=O)N[C@@H](CCC(=O)O)C(=O)N[C@@H](Cc1ccc(O)c(C(=O)O)c1)C(=O)N[C@@H](CC(C)C)C(N)=O (HELM PEPTIDE1{[ac].D.A.D.E.[O=C(O)c1cc(C[C@H](N[*:1])C(=O)[*:2])ccc1O].L.[am]}$$$$V2.0) |  |
| 1200 | CC(=O)N[C@@H](CC(=O)O)C(=O)N[C@@H](C)C(=O)N[C@@H](CC(=O)O)C(=O)N[C@@H](CCC(=O)O)C(=O)N[C@@H](Cc1ccc(OCC(=O)O)cc1)C(=O)N[C@@H](CC(C)C)C(N)=O (Ac-DADEY(Carboxymethyl)L-NH2) |  |
